Among the data in patent publication US7618961B2, “Inhibitors of 11-beta-hydroxy steroid dehydrogenase type 1” (Biovitrum AB, priority 2000, dated 2009) are Ki and melting point values, retold here.

Broadly, the Ki is the dissociation constant of the complex between target and ligand, obtained from inhibition or displacement. Broadly, the melting point is the temperature, or range, at which the solid turns liquid.

For the first data set, the target named is T1, human 11-β-hydroxysteroid dehydrogenase type-1 enzyme (11-β-HSD1) (Homo sapiens, UniProt P28845).
T1 construct: made in house; host or cells: Pichia pastoris
T1 sequence (P28845 whole entry): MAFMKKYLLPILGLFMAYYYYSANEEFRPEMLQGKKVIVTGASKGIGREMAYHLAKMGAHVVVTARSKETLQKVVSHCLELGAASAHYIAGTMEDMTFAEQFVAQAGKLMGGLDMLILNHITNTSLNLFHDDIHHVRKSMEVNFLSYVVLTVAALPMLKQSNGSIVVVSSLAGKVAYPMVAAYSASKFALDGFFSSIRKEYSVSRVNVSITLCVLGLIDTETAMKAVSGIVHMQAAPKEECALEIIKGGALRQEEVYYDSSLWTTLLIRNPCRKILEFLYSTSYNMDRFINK
Put plainly: Scintillation proximity assay: human 11-β-HSD1 enzyme assay. The format is biochemical. The note with it: Ki calculated from IC50 (Cheng Prushoff). From the text:
[1, 2(n)-^3H]-cortisone was purchased from Amersham Pharmacia Biotech. Anti-cortisol monoclonal mouse antibody, clone 6D6.7 was obtained from Immunotech and Scintillation proximity assay (SPA) beads coated with monoclonal antimouse antibodies were from Amersham Pharmacia Biotech. NADPH, tetrasodium salt was from Calbiochem and glucose-6-phosphate (G-6-P) was supplied by Sigma. The human 11-β-hydroxysteroid dehydrogenase type-1 enzyme (11-β-HSD1) was expressed in Pichia pastoris. 18-β-glycyrrhetinic acid (GA) was obtained from Sigma. The serial dilutions of the compounds were performed on a Tecan Genesis RSP 150.
Compounds to be tested were dissolved in DMSO (1 mM) and diluted in 50 mM Tris-HCl, pH 7.2 containing 1 mM EDTA.
The multiplication of plates was done on a WallacQuadra. The amount of the product [^3H]-cortisol, bound to the beads was determined in a Packard, Top Count microplate liquid scintillation counter.
The 11-β-HSD1 enzyme assay was carried out in 96 well microtiter plates (Packard, Optiplate) in a total well volume of 220 μL and contained 30 mM Tris-HCl, pH 7.2 with 1 mM EDTA, a substrate mixture tritiated Cortisone/NADPH (175 nM/181 μM), G-6-P (1 mM) and inhibitors in serial dilutions (9 to 0.15 μM). Reactions were initiated by the addition of human 11-β-HSD1, either as Pichia pastoris cell homogenate or microsomes prepared from Pichia pastoris (the final amount of enzyme used was varied between 0.057 to 0.11 mg/mL). Following mixing, the plates were shaken for 30 to 45 minutes at room temperature. The reactions were terminated with 10 μL 1 mM GA stop solution. Monoclonal mouse antibody was then added (10 μL of 4 μM) followed by 100 μL of SPA beads (suspended according to the manufacturers instructions). Appropriate controls were set up by omitting the 11-β-HSD1 to obtain the non-specific binding (NSB) value.
The plates were covered with plastic film and incubated on a shaker for 30 minutes, at room temperature, before counting. The amount of [^3H]-cortisol, bound to the beads was determined in a microplate liquid scintillation counter.
The calculation of the Ki values for the inhibitors was performed by use of Activity Base. The Ki value is calculated from IC50 and the Km value is calculated using the Cheng Prushoff equation (with reversible inhibition that follows the Michaelis-Menten equation): […] [Cheng, Y. C.; Prushoff, W. H. Biochem. Pharmacol. 1973, 22, 3099-3108]. The IC50 is measured experimentally in an assay wherein the decrease of the turnover of cortisone to cortisol is dependent on the inhibition potential of each substance. The Ki values of the compounds of the present invention for the 11-β-HSD1 enzyme lie typically between about 10 nM and about 10 μM. Illustrative of the invention, the following Ki values have been determined in the human 11-β-HSD1 enzyme assay (see Table 1): […]
`CCCC(=O)Cc1csc(NS(=O)(=O)c2cccc(Cl)c2C)n1` [Example 179A, 3-Chloro-2-methyl-N-[4-(2-oxopentyl)-1,3-thiazol-2-yl]benzenesulfonamide]: the Ki was 14 nM.

As to `O=C(Cc1csc(NS(=O)(=O)c2ccc(-c3ccccc3)cc2)n1)N1CCOCC1` [Example 151A, N-{4-[2-(4-morpholinyl)-2-oxoethyl]-1,3-thiazol-2-yl}[1,1′-biphenyl]-4-sulfonamide], the Ki was 21 nM.

Turning to `CCOC(=O)Cc1csc(NS(=O)(=O)c2cc(C)c(Cl)cc2Cl)n1` [Example 1A, Ethyl (2-{[(2,4-dichloro-5-methylphenyl)sulfonyl]amino}-1,3-thiazol-4-yl)acetate], the Ki is 32 nM.

Regarding `Cc1c(Cl)cccc1S(=O)(=O)Nc1nc(CCN2CCOCC2)cs1.Cl` [Example 204A, 3-Chloro-2-methyl-N-{4-[2-(4-morpholinyl)ethyl]-1,3thiazol-2-yl}benzenesulfonamide hydrochloride], the Ki is 91 nM.

Regarding `Cc1c(Cl)cccc1S(=O)(=O)Nc1nc(CCOc2cccnc2)cs1` [Example 189A, 3-Chloro-2-methyl-N-{4-[2-(3-pyridinyloxy)ethyl]-1,3-thiazol-2-yl}benzenesulfonamide], the inhibition constant Ki is 299 nM.

In the case of `Cc1c(Cl)cccc1S(=O)(=O)Nc1nc(CCO)cs1` [Example 181A, 3-Chloro-N-[4-(2-hydroxyethyl)-1,3-thiazol-2-yl]-2-methylbenzenesulfonamide], the Ki was 53 nM.

As for `O=C(Cc1csc(NS(=O)(=O)c2c(Cl)cc(Cl)cc2Cl)n1)N1CCOCC1` [Example 149A, 2,4,6-Trichloro-N-{4-[2-(4-morpholinyl)-2-oxoethyl]-1,3-thiazol-2-yl}benzenesulfonamide], the Ki is 51 nM.

System in the next data set: not given
Assay: not given
Conditions: not given
Compound `Cc1c(Cl)cccc1S(=O)(=O)Nc1nc(CCN2CCOCC2)cs1.Cl` [Example 204A, 3-Chloro-2-methyl-N-{4-[2-(4-morpholinyl)ethyl]-1,3thiazol-2-yl}benzenesulfonamide hydrochloride] registered a melting point of 197 to 198 °C.
